{
  "source": "paper PMC3006138",
  "about": "“Fexinidazole – A New Oral Nitroimidazole Drug Candidate Entering Clinical Development for the Treatment of Sleeping Sickness” (PLoS Neglected Tropical Diseases, 2010)",
  "key": {"T. b. gambiense 130R": {"system": "T. b. gambiense 130R", "test": "Acute infection mouse model", "type": "in vivo", "conditions": "100 mg/kg×4 days po", "description": "Female NMRI mice were infected via intraperitoneal injection with bloodstream forms of T. b. rhodesiense STIB900 or T. b. gambiense 130R and treated with test drugs daily for 4 consecutive days, starting on day 3 or 7 after infection, respectively, or with bloodstream forms of T. b brucei GVR35 and treated daily from day 21 after infection for 5 days. Parasitemia was evaluated by tail blood examination and surviving, aparasitaemic mice at 60, 90, or 180 days, respectively, were considered cured."}, "[1]": {"test": "Hepatocyte intrinsic clearance and metabolite profile", "type": "in vitro ADME, human", "conditions": "human, cryopreserved pooled hepatocytes, 1 µM", "description": "Fexinidazole was incubated with cryopreserved hepatocytes from male CD-1 mice, male Sprague Dawley rats, male beagle dogs, male cynomolgus monkeys, and from pooled white or African-American human donor samples (purchased commercially), at concentrations of 1 µM and 10 µM. […] The incubated samples were analyzed by LC-MS after extraction into acetonitrile.\nA quality control analysis of fexinidazole was performed via 1H-NMR in DMSO and LC- […]\nprovided by the Swiss Tropical Institute (Basel, Switzerland).\nReagents and solvents were of analytical grade and obtained from Sigma-Aldrich (St. Louis, […]\nCryopreserved hepatocytes from the male CD1 mouse, lot CSI; male Sprague Dawley rat, lot LPL; male beagle dog, lot BWX; male cynomolgus monkey, lot EHH; and pooled human samples, lot MJI, were purchased from In Vitro Technologies Inc (Baltimore, Maryland, […]\n5.4. In vitro Incubations\nOn the day of the experiment a 10 mM stock solution of fexinidazole in DMSO was prepared and, within 3 hours, aliquots of this freshly prepared solution, after suitable dilution, were added to the incubation matrix, to reach fexinidazole final concentrations of 1 and 10 µM. The final percentage of DMSO was 0.01% in the incubation samples for the […]\nOn the day of experiment, the cryopreserved hepatocytes were thawed following the detailed instructions provided by the supplier.\nThe number of viable cells was determined using a Trypan Blue exclusion method.\n5.4.1. Intrinsic Clearance Study […]\nµM with mouse, rat, dog, monkey and human hepatocytes (300000 cells/mL for the mouse and 1 million cells/mL for the other species) in a final incubation volume of 0.75 mL […]\nIncubations were performed in duplicate in a 48-well plate under shaking. Sampling was performed using an automatic liquid handling system (Multiprobe II EX, Packard). At 0, 1, 5, 10, 15, 20, 30, 60 and 120 minutes, 50 µL aliquots of the incubates were taken, then 80 µL of ice-cold acetonitrile and 20 µL of 1 µM warfarin in acetonitrile (internal standard) were added, and samples centrifuged at 2000 rpm for 20 min. The supernatant was analyzed by LC-MS/MS. […]\nthe medium alone at t = 0 and 120 minutes.\nFor the determination of phase I and phase II activity of hepatocytes, 7-ethoxycoumarin (7-EC) 1 µM, and 7-hydroxycoumarin (7-HC) 30 µM were used as positive controls and incubated under the same conditions as fexinidazole. Aliquots of incubates were taken at 0, 10, 20, 30, 60 and 120 minutes and processed as fexinidazole samples.\n5.4.2. Metabolite Profile Study\nFor metabolite profiling, fexinidazole was incubated at a concentration of 10 µM with mouse, rat, dog, monkey and human hepatocytes (300000 cells/mL for the mouse and 1 million cells/mL for the other species) in a final incubation volume of 2 mL Leibovitz L-15 […]\nAliquots of the incubation samples were taken at t = 0, 30 and 120 minutes; the metabolism was stopped by the addition of an equal volume of cold acetonitrile and the samples centrifuged at 1500 rpm for 20 min. The supernatant was stored at -20°C until analysis. Control incubations were performed with the compound in the medium alone […]\n5.5. Analysis of Samples for Intrinsic Clearance Determination\nThe analysis of the samples for intrinsic clearance determination was performed by an LC-MS/MS method, using the following conditions:\nHPLC Equipment and Conditions\nHPLC system Agilent 1100 binary pump (Agilent, Palo Alto, USA)\nAutosampler CTC Pal (Alfatech, San Jose, USA)\nAnalytical column Guard Column SB-C8 4.6 x 12.5 mm, 5 µm (Zorbax)\nColumn temperature ambient\nMobile phase A 10 mM ammonium formate pH 4.0: acetonitrile (95:5, v:v)\nMobile phase B 10 mM ammonium formate pH 4.0: acetonitrile (5:95, v:v) […]\nGradient conditions Step Total time (min) flow (µL/min) %A % B […]\nMS Equipment and Conditions\nMass spectrometer API 4000 Triple Quadrupole (MDS-Sciex, Toronto, […]\nSource Turbo Ion Spray (TIS)\nIon mode Positive for fexinidazole and 7-EC.\nNegative for 7-HC, 7-HC sulphate and 7-HC glucuronide."}, "in vitro": {"test": "in vitro", "conditions": "dog", "description": "(§1) Caco-2 [36] or MDR1-MDCK (Madin Darby canine kidney cells transfected with the human multidrug resistance MDR1 gene) cell monolayers were grown to confluence on collagen-coated, microporous, polycarbonate membranes in 12-well microtitre plates. The buffer for the donor chamber was Hanks balanced salt solution with 10 mM HEPES and 15 mM glucose at pH 7.4. The buffer in the receiver chamber contained the same with the addition of 1% bovine serum albumin (BSA). The test article was added at 5 µM in the assay buffer. […] After 2 h, duplicate aliquots were taken from the donor and receiver chambers and assayed via LC/MS. The apparent permeability and recovery were calculated using standard methods.\n(§2) The objective of this study was to determine the bi-directional MDR1-MDCK permeability and efflux limited absor ption potential of thr ee test compounds. […]\n(§3) 4. Th e buff er in th e r ecei ver cha m ber a l so con t a in ed 1% Bovi n e Ser um Al bumin ( BSA) . Th e test compound dosing concentrations were 5 µM in th e a ssay bu f fer . […] After two hours, a l iquot s wer e t a ken fr om th e r ecei ver an d don or cha m ber s. E a ch det erm ina ti on wa s per for m ed in dupl i cat e. Th e Lucifer Yellow flux was also measur ed for each mon olayer after bein g subjected to th e test compoun ds to en sur e n o damage was in flicted to th e cell mon olayer s durin g th e flux per iod. All samples wer e assayed by LC/MS/MS usin g electrospray ionization. Analytical conditions are outlined in Attachment I. The apparent permeability, Papp, and per cen t r ecover y wer e calculated as follows: […]\n(§4) dCr /dt is th e slope of th e cumulative con cen tration in th e r eceiver compartment ver sus time in µM s -1. […]"}, "[2]": {"system": "MDR1 (human, transfected)", "test": "in vitro", "conditions": "dog, MDCK-MDR1, pH 7.4", "description": "as §1, §2, §3, §4"}, "[3]": {"system": "MDR1-MDCK cell monolayers", "test": "in vitro", "conditions": "MDCK-MDR1", "description": "as §1, §2, §3, §4"}, "human MDR1": {"system": "human MDR1", "test": "in vitro", "conditions": "dog, MDCK-MDR1, pH 7.4", "description": "as §1, §2, §3, §4"}, "[4]": {"test": "Respiratory safety (plethysmography)", "conditions": "single oral dose"}},
  "data": [
    {"smiles": "CSc1ccc(OCc2ncc([N+](=O)[O-])n2C)cc1", "note": "[Fexinidazole, 1-methyl-2-((p-(methylthio)phenoxy)methyl)-5-nitroimidazole]", "values": [
      {"measurement": "Cured/infected", "setting": "T. b. gambiense 130R", "value": "3/3"},
      {"measurement": "Mean relapse time", "setting": "T. b. gambiense 130R", "value": ">90", "unit": "days"},
      {"measurement": "half-life at 1 µM", "setting": "[1]", "value": 13, "unit": "min"},
      {"measurement": "CLint scaled at 1 µM", "setting": "[1]; read-out: CLint in vitro", "value": 124, "unit": "mL/min/kg"},
      {"measurement": "hepatocyte CLint at 1 µM", "setting": "[1]; read-out: CLint in vitro", "value": 51.9, "unit": "µL/min/1e6 cells"},
      {"measurement": "Papp A→B at 2 h, 5 µM", "setting": "in vitro; MDCK-MDR1, pH 7.4", "value": 60.6, "unit": "×10⁻⁶ cm/s"},
      {"measurement": "recovery at 2 h, 5 µM", "setting": "in vitro; MDCK-MDR1, pH 7.4, Percent Recovery A→B", "value": 71, "unit": "%"},
      {"measurement": "recovery at 2 h, 5 µM", "setting": "in vitro; MDCK-MDR1, pH 7.4, Percent Recovery B→A", "value": 77, "unit": "%"},
      {"measurement": "efflux ratio at 2 h, 5 µM", "setting": "[2]", "value": 0.9},
      {"measurement": "Papp B-A / Papp A-B Ratio", "setting": "[3]", "value": "no significant efflux"},
      {"measurement": "Papp B→A at 2 h, 5 µM", "setting": "human MDR1", "value": 55.1, "unit": "×10⁻⁶ cm/s"},
      {"measurement": "NOEL on respiratory parameters", "setting": "[4]", "value": 1000, "unit": "mg/kg"}
    ]}
  ]
}
